90 molecules from PubChem BioAssay AID1508591 can be followed below.

The conditions of the series: rat; liver microsomes; pH 7.4; 15.0 min; 1.0 µM. In general terms: Microsomes from liver hold many membrane-bound enzymes, among them those of drug oxidation.

For the molecule `Cc1ccc(-c2cc(C(=O)Nc3ccc(-n4cncn4)cc3)c3ccccc3n2)cc1C`, the half-life amounted to 23 min.

Regarding `Oc1ccc(CNc2ccccc2F)c2cccnc12`, the half-life came out at 3.7 min.

`Nc1ccc(S(=O)(=O)Nc2cnccc2C(=O)Nc2nc(-c3ccccc3)cs2)cc1` returned a half-life of 25 min.

Consider `Cc1cc(-c2ccc(C)c(S(=O)(=O)NCC3CCN(Cc4ccc(F)cc4)CC3)c2)on1`, for which the half-life worked out at 5.49 min.

For `CC1CCN(S(=O)(=O)c2ccc3c(c2)C(C)(C)C(=O)N3CC(=O)NCc2ccco2)CC1`, the half-life was 1.8 min.

`OCCNc1ncnc2c1ncn2[C@@H]1O[C@@H](CO)[C@H](O)[C@@H]1O` had a half-life greater than 30 min.

Turning to `COc1c(O)ccc2c1CN1CCc3cc4c(cc3[C@@H]1C2)OCO4`, the half-life is 18.9 min.

Regarding `Cc1cc(C)nc(NC(=S)N2CCN(c3cccc(C(F)(F)F)c3)CC2)c1`, the half-life is greater than 30 min.

Molecule `Cc1ccc(-c2nc(NCC(=O)Nc3cccc(C(=O)O)c3)c3ccccc3n2)cc1` yielded a half-life greater than 30 min.

Take `Fc1ccc(CN2CCNc3cc(Nc4ccccc4)ncc3C2)cc1F`: the half-life is 2.28 min.

Take `Cc1ccc(-c2csc(NC(=O)c3ccncc3NS(=O)(=O)c3ccc(C)cc3)n2)cc1`: the half-life came out at 7.3 min.

`COc1ccc(-n2cnc3cc(C(=O)N4CCCCC4)ccc32)cc1` showed a half-life of 20.7 min.

In the case of `Cc1ccc(CN2CCOC[C@H]2c2ncc(-c3cccc(F)c3)[nH]2)cc1`, the half-life came out at 2.16 min.

As to `O=C(c1nc(-c2ccc(Cl)cc2Cl)c2cnccn12)N1CCOCC1`, the half-life worked out at 23.6 min.

Molecule `O=C(Nc1ncc(Cc2ccc(C(F)(F)F)cc2)s1)c1ccc(-c2ccc([N+](=O)[O-])cc2)o1` had a half-life greater than 30 min.

As for `COc1ccc(S(=O)(=O)N2CCN(C(=O)C3COc4ccccc4O3)CC2)cc1` (stereo not given), the half-life came to 7.6 min.

As for `NC(=O)N1CCN(c2nc(-c3ccc(Br)cc3)cs2)CC1`, the half-life was greater than 30 min.

In turn, `COc1ccc(C2Nc3ccccc3C(=O)N2Cc2cccnc2)cc1COc1c(C)cc(NC(C)=O)cc1C` (stereo not given) registered a half-life of 1.8 min.

Consider `CC(=O)N1CCC(NC(=O)c2nc(-c3ccccc3)cc3[nH]ccc23)CC1`, for which the half-life is greater than 30 min.

For the molecule `NC(=O)C1CCN(c2nc(-c3ccccc3Cl)cs2)CC1`, the half-life is 4.02 min.

On to `Oc1cccc(-c2nc(N3CCOCC3)c3oc4ncccc4c3n2)c1`, for which the half-life is 21.8 min.

The molecule `O=C(Nc1ncc(Cc2ccc(C(F)(F)F)cc2)s1)c1ccc(-c2ccccc2[N+](=O)[O-])o1` displayed a half-life greater than 30 min.

In turn, `O=[S+]([O-])(Nc1nccs1)c1ccc(NCc2cc(F)cc(Cl)c2O)cc1` came in with a half-life greater than 30 min.

For `COc1ccc(S(=O)(=O)N(C(=O)C(C)C)c2ccc3oc(=O)sc3c2)cc1`, the half-life stood at 2.2 min.

For the molecule `CCCCOC(=O)c1ccnc2cc(C(OCCN3CCCCC3)c3ccccc3Cl)sc12` (stereo not given), the half-life came to 3.32 min.

`NC(=O)C1CCN(c2nccc(Cl)n2)CC1` came in with a half-life greater than 30 min.

Molecule `O=c1cc(-c2ccccc2)oc2cc(O)cc(O)c12` yielded a half-life of 1.92 min.

Molecule `CC(=O)c1c(C)c2cnc(Nc3ccc(N4CCNCC4)cn3)nc2n(C2CCCC2)c1=O` returned a half-life greater than 30 min.

`CN1CCN(c2cc(-c3nc(Nc4ccc(F)c(F)c4)c4ccccc4n3)ccn2)CC1` yielded a half-life of 5.3 min.

Molecule `c1ccc2c(Nc3nccs3)nc(-c3ccncc3)nc2c1` registered a half-life of 6.4 min.

For the molecule `Cc1ccc(Nc2nc(-c3ccncc3)nc3ccccc23)cc1F`, the half-life came out at 12 min.

Regarding `Cc1ccc(-n2nc3c(=O)n(CCCC(=O)NCc4ccc(F)cc4)nc(C)c3c2C)cc1`, the half-life was found to be 2.77 min.

Consider `Cc1ccc(-n2ncc3c(NCCCN(C)C)ncnc32)cc1Cl`, for which the half-life amounted to 8.9 min.

Consider `Fc1ccc(-c2csc3ncnc(NCc4ccc5c(c4)OCO5)c23)cc1`, for which the half-life was 19.2 min.

Take `Cc1cc(C)nc(NC(=S)N2CCN(Cc3cccc(C(F)(F)F)c3)CC2)c1`: the half-life is greater than 30 min.

In turn, `NC(=O)C1CCN(c2nc(-c3ccc(Br)cc3)cs2)CC1` returned a half-life of 2.06 min.

`O=C(Nc1ccc2oc(-c3cccnc3)nc2c1)c1ccc(-c2cccc(Cl)c2)o1` returned a half-life greater than 30 min.

`Cc1cccc(-n2cnc3cc(C(=O)N4CCCC(C)(C)C4)ccc32)c1` displayed a half-life of 1.6 min.

`O=C1Cc2cc(C(=O)c3ccco3)ccc2N1`: the half-life is 20 min.

Molecule `CCc1cc(Cl)c(OC)c(C(=O)NC[C@@H]2CCCN2CC)c1O` gave a half-life of 1.71 min.

The molecule `N#Cc1ccc(C(=O)Nc2ccc(Cl)c(-c3nc4cc(Cl)ccc4o3)c2)c(F)c1` returned a half-life greater than 30 min.

As to `O=S(=O)(Nc1ccccc1)c1ccc(NCc2ccc(Br)cc2O)cc1`, the half-life was 2 min.

Regarding `CSc1ccccc1-c1ccc(Nc2nc(-c3ccncc3)nc3ccccc23)cc1F`, the half-life was 5.1 min.

On to `O=C(NCc1ccccc1)c1cn2cc(-c3ccccc3)sc2n1`, for which the half-life turned out to be 24 min.

In turn, `O=C(NCCCNc1nc(Nc2cccc(CN3CCOCC3)c2)ncc1C1CC1)C1CCC1` yielded a half-life of 6.85 min.

The molecule `Cc1cnc(-c2ccccc2C(F)F)nc1NCC1CN(c2cnccn2)C1` showed a half-life of 1.8 min.

As to `CN(C)CCN1C(=O)c2cccc3cc(N)cc(c23)C1=O`, the half-life is greater than 30 min.

Molecule `O=C(Nc1cn[nH]c1-c1nc2ccc(CN3CCOCC3)cc2[nH]1)NC1CC1` yielded a half-life greater than 30 min.

With `CCCCN(C)C(=O)c1c(C)sc2ccn(CCC)c(=O)c12`, the half-life stood at 13.3 min.

Turning to `O=[N+]([O-])c1ccc(CNc2ccc([S+](=O)([O-])Nc3nccs3)cc2)c(O)c1`, the half-life turned out to be 13 min.

For the molecule `COc1ccccc1NC(=O)C1=C(C)Nc2c(C(=O)Nc3cccc(C)c3)cnn2C1c1ccccc1Cl` (stereo not given), the half-life was 2.98 min.

As for `Cc1cccc(-n2ccc(=O)c(C(=O)Nc3ccc(S(=O)(=O)Nc4nccs4)cc3)n2)c1`, the half-life is greater than 30 min.

On to `Cc1nn2c(c1-c1ccccc1-c1ccccc1)N(Cc1ccc(C(=O)O)s1)CCC2`, for which the half-life turned out to be 7.81 min.

The molecule `O=C(c1ccccc1)N1CCN(c2nc(-c3ccc(Br)cc3)cs2)CC1` displayed a half-life greater than 30 min.

With `COc1ccc(-n2c(C)cc(-c3nnc4n3CCCCC4)c2C)cc1`, the half-life is 2.4 min.

`CN(C)C(=O)c1cccc(-c2csc(N3CCC(C(N)=O)CC3)n2)c1` came in with a half-life greater than 30 min.

In turn, `O=C(c1ccc(C(=O)N2CCC(N3CCCC3)CC2)c(Nc2ccccc2)c1)N1CCC(N2CCCC2)CC1` had a half-life greater than 30 min.

In turn, `Cc1ccc(S(=O)(=O)Nc2cnccc2C(=O)Nc2nc(-c3ccc(-c4ccccc4)cc3)cs2)cc1` displayed a half-life greater than 30 min.

For `COc1ccc(NC(=O)C2=C(C)NC(Nc3nc4ccccc4o3)=NC2c2ccccc2Br)cc1` (stereo not given), the half-life was 21 min.

The molecule `Cc1ccnc(NC(=S)N2CCN(c3ccc(N)cc3)CC2)c1` came in with a half-life greater than 30 min.

With `CCOc1ccccc1C(=O)Nc1ccccc1C(=O)Nc1cccc(S(=O)(=O)C(F)(F)F)c1`, the half-life is greater than 30 min.

Take `COc1cc([C@@H](CC(=O)O)c2ccc(C)c(CN3C[C@@H](C)Oc4ccccc4S3(=O)=O)c2)cc2nnn(C)c12`: the half-life is 16 min.

In turn, `Cc1cccc(OCC(=O)Nc2ccc3nc(Nc4cccc(Cl)c4)cc(C)c3c2)c1` came in with a half-life greater than 30 min.

`O=C(O)Cn1c(C(=O)Nc2nc(-c3ccccc3Cl)cs2)cc2ccccc21` displayed a half-life greater than 30 min.

Regarding `Cc1ccnc(NC(=S)N2CCN(c3cccc(Cl)c3Cl)CC2)c1`, the half-life worked out at 2.4 min.

Regarding `Cc1ccc(-c2cc(C(=O)Nc3ccc(-c4nn[nH]n4)cc3)c3ccccc3n2)cc1C`, the half-life is greater than 30 min.

In the case of `CC1=C(C(=O)Nc2nncs2)C(c2ccccc2Br)N=C(Nc2nc3ccccc3o2)N1` (stereo not given), the half-life is greater than 30 min.

`Cc1ccnc(NC(=S)N2CCN(c3cccc(C(F)(F)F)c3)C[C@@H]2C)c1`: the half-life was determined as 7.12 min.

`CCc1cccc(NC(=O)c2cc(-c3ccc[nH]3)n[nH]2)c1` returned a half-life of 6.57 min.

`Cc1cc(C)c(C(=O)Nc2cccc([S+](=O)([O-])Nc3ccc(Br)cc3)c2)[nH]1` showed a half-life of 7.7 min.

Regarding `Cc1ccc(S(=O)(=O)Nc2cccc(C(=O)Nc3nc(-c4ccc(Cl)cc4)cs3)c2)cc1`, the half-life was found to be 23 min.

Turning to `Cc1cccc(S(=O)(=O)c2cn(Cc3ccccc3)c3cc(N4CCCCC4C)c(F)cc3c2=O)c1` (stereo not given), the half-life turned out to be 2 min.

As to `Cc1c(-c2cccc(NC(=O)c3ccc(F)c(F)c3)c2)nc2ncccn12`, the half-life is 12.6 min.

Molecule `O=C1Nc2cc(Cl)ccc2Nc2cscc21` had a half-life of 21.8 min.

In turn, `CCN(CC)S(=O)(=O)c1ccc(N2CCCC2)c(NS(=O)(=O)c2ccc(C)cc2)c1` returned a half-life of 1.17 min.

Take `O=C1NC(=S)NC(=O)C1=Cc1cccn1-c1ccc(O)cc1`: the half-life came out at 10.5 min.

`O=C1Nc2cccc(Cl)c2/C1=C\c1cc(Cl)c(O)c(Cl)c1` gave a half-life greater than 30 min.

With `O=S(=O)(c1ccc2ccccc2c1)N1CCN(c2nc(-c3cccs3)nc3ccccc23)CC1`, the half-life is 2.34 min.

With `CN(C)C(=O)C1CCN(c2nc(-c3ccc(Br)cc3)cs2)CC1`, the half-life was greater than 30 min.

As to `Cc1nn2c(c1-c1ccccc1Oc1ccccc1)N(Cc1ccccc1O)CCC2`, the half-life came to 1.76 min.

As for `Cc1ccc(C(=O)NC2CCN(c3cnn(CC4CC4)c(=O)c3)CC2)cc1C`, the half-life is 16.3 min.

Molecule `CCNC(=O)C[C@@H]1N=C(c2ccc(Cl)cc2)c2cc(OC)ccc2-n2c(C)nnc21` had a half-life greater than 30 min.

`COc1cc(Cl)c(C)cc1NC(=O)CSc1ncc(S(=O)(=O)c2ccc(C(C)(C)C)cc2)c(=O)[nH]1` returned a half-life of 6.38 min.

The molecule `Fc1ccc(Nc2ccnc(-c3ccncc3)n2)cc1F` registered a half-life of 13 min.

`CCCCNc1oc(-c2cccc3ccccc23)nc1C#N` registered a half-life of 5.78 min.

For the molecule `CC(C)(C)C(=O)C(Oc1ccc(Cl)cc1)n1ccnc1` (stereo not given), the half-life is greater than 30 min.

The molecule `COc1ccccc1NC(=O)C1=C(C)Nc2c(C(=O)Nc3ccc(F)cc3)cnn2C1c1ccc(Cl)cc1` (stereo not given) gave a half-life of 3.34 min.

Consider `CC(C)N(CCCNC(=O)Nc1ccc(C(C)(C)C)cc1)C[C@H]1O[C@@H](n2cc(Br)c3c(N)ncnc32)[C@H](O)[C@H]1O`, for which the half-life was 2.47 min.

In turn, `CN(C)CC(=O)NC1CCCc2c1cnn2-c1ccc(F)cc1F` (stereo not given) displayed a half-life greater than 30 min.

`O=C1CCCC2=C1C(c1[nH]ncc1Cl)N=C(Nc1nc3cc([S+](=O)([O-])N4CCCC4)ccc3o1)N2` (stereo not given): the half-life stood at 8 min.

The half-life is the time needed for the level to fall by half in the phase considered. The low end stands for rapid decline, the high end for slow decline.
